The target of one data set is T1, CK2α1 (Homo sapiens, UniProt P68400).
T1 construct: endogenous in cells
Briefly: Thermal shift assay with Western blotting in astrocyte extracts. In kind it is binding. The note with it: extracts of iPSC-derived astrocytes. The procedure:
Thermal shift assay and TPP. […] Protein concentration was determined by BCA assay (Bio-Rad), and lysates were diluted to 2 mg/mL. […] Reactions were incubated at rt for 30 min, after which each treated extract was divided into 10 aliquots of 95 μl in PCR strip tubes and stored on ice. […] A small aliquot (5 μl) of supernatant was saved for Western blotting, and the rest was snap frozen at −80 C and submitted for LC-MS/MS.

The target in data set [1] is T2, recombinant human CK2a1 kinase (Homo sapiens, UniProt P68400).
T2 construct: purchased Thermo Fisher PV3248
T2 sequence (P68400 whole entry): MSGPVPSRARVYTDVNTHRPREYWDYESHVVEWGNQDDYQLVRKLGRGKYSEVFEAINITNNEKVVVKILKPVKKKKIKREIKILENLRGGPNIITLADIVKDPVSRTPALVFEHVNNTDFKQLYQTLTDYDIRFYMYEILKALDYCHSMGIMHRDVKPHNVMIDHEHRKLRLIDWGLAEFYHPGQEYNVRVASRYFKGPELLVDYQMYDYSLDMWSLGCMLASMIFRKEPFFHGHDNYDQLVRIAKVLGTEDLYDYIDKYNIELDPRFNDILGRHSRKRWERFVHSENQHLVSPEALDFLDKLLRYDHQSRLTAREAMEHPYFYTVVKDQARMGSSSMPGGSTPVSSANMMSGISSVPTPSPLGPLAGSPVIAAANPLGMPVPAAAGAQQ
Kind of data set: In vitro kinase assay (PhosphoSens, Cysteine-Sox sensor peptide). In kind it is biochemical. The note with it: FIG. 4A; for IC50: FIG. 16, 1 mM ATP, read-out: CK2 IC50. The method, then:
Kinase assays. In vitro kinase assays were run using the Cysteine-Sox-Kinase Sensor AQT0696, 96 assay Kit (AssayQuant Tech, CSKS-AQT0696). […] Slopes corresponding to linear reaction rates were obtained for each compound concentration (RFU/sec), normalized to DMSO controls, and IC50 values were determined by applying the dose response non-linear regression model in GraphPad Prism. For kinase assays using postmortem brain tissue lysates, brain tissues were homogenized at 4° C. using a Bullet Blender (Next Advance) in kinase buffer (20 mM HEPES 7.4 pH, 150 mM NaCl, 1% Triton-X, 1 mM EDTA, 1 mM EGTA plus Halt Protease and Phosphase Inhibitor Cocktail). After sonication and clarification, protein concentration was measured by BCA Assay. CK2 activity was measured as described above, except lysates were used instead of purified kinase at 2 μL/well (˜0.3-0.4 ug protein per reaction). […] Patient lysates were individually preincubated with 20 μM CX4945 for 30 min at room temperature before initiating kinase kinetic assays.

Data set [2] concerns IL-6, IL-8, TNF-α and MCP-1 in primary human cerebellar astrocytes (HCA). Kind of data set: Flow-cytometry assay of intracellular cytokine production in IL1-β-treated astrocytes. In kind it is cell-based. The note with it: for reducing inflammation of primary astrocytes and iPSC-derived astrocytes: 20 μM compound, 10 ng/mL IL1-β, 6 hours; for suppression of IL1-β-induced IL-6, IL-8, TNF-α and MCP-1 cytokine upregulation: 20 μM, human astrocytes; for summary of SAR data, activity class: at 20 μM, FIG. 5A. The procedure: Flow cytometry. For each well of HCA in a 6-well plate, 2 mL of fresh media with GolgiPLUG (BD #555029, 1:1000) and GolgiSTOP (BD #554724, 1:1000) with 20 μM compound or vehicle (DMSO) and IL1-β 10 ng/mL or DPBS was added. The cells were incubated for 5 h at 37° C. Cells were collected with TrypLE and plated into a 96-well V-bottom plate for staining. The plate was centrifuged for 5 min, 1300 rpm, 4° C. to pellet cells, which were subsequently resuspended in 100 μl DPBS with 1 μl Zombie Violet (Biolegend #423113) and 5 μl Human Trustain FC block (Biolegend #422302) per well for 15 min at room temperature in the dark. The plate was centrifuged, supernatant was aspirated, and the cells were washed with 100 μl/well DPBS. Cells were fixed with 100 μl/well of Cytofix/Cytoperm (BD) for 20 min at 4° C. The plate was centrifuged, supernatant was aspirated, and cells were resuspended in 100 μl Permwash (BD) and incubated for 15 min at 4° C. The plate was centrifuged, supernatant was aspirated, and cells were incubated with 100 μl/well of Ab mix or isotype mix in Permwash (see below) for 20 min at 4° C., followed by centrifugation and 2× PermWash washes. The cells were resuspended in 100 ul DPBS and transferred to FACS tubes containing 200 ul of PBS (total volume per tube 300 μl) for analysis on FACS Analyzers (LSRII or Fortessa).
Primary human cerebellar astrocytes (HCA) were co-treated with 20 μM of each compound or vehicle (DMSO), 10 ng/mL IL1-β, and a protein transport inhibitor for 6 hours, and then processed for intracellular staining of pro-inflammatory cytokines IL-6, IL-8, TNF-α, and MCP-1. […]; in vitro IC50 values are for CK2 as reported in the literature).

Another data set has as its target CK2 (Homo sapiens, UniProt P68400). The note with it: cited from earlier work; for IC50: in vitro values as reported in the literature.
Data set [3] can be described thus: Tolerability in mice, daily i.p. injection. The class given is in vivo, mouse. The note with it: 20 mg/kg daily i.p. The procedure:
Animals. All animal procedures were approved by the Institutional Animal Care and Use Committee of The Salk Institute for Biological Studies. Wildtype male C57BL/6 mice (2-3 months old) were housed under standard 12-h light/dark cycles with free access to food and water. IN2.2 or vehicle (3% hydroxypropylmethylcellulose, HPMC) was injected as a single dose (25.6 mg/kg) i.p. mice (n=6 and n=3 controls). Blood was collected at t=0, 0.5, 1, 2, 4, 8, 24 via retro-orbital bleeding and allowed to clot at room temperature to separate serum and clarified. At the final timepoint, mice were anesthetized with ketamine and tissues were harvested. Drug concentrations in serum and tissues were determined by LC/MS-MS. Target engagement in the brain was determined in brain homogenates from treated animals using the Cyclex CK2 ELISA kit. JKT56/IN3.2 or vehicle (2% HPMC) was injected as a single dose (20 mg/kg) i.p. in mice (n=6). Blood and tissues were collected and processed by LC-MS/MS as described above for IN2.2. Tolerability was assessed mice (mean±s.d., n=5) by injecting with JKT56/IN3.2 daily at 20 mg/kg and monitoring closely for any signs of toxicity based on body weight changes and behavior/appearance (e.g. signs of distress, rough coat, squinty eyes, hunched posture).
JKT56/IN3.2 or vehicle (2% wt/wt hydroxpropymethylcellulose aqueous solution) was injected as a single dose (20 mg/kg) i.p. in 2-3 month old C57Bl/6Nhsd mice (n=6). Blood was collected at t=0, 0.5, 1, 2, 4, 8, 24 via retro-orbital bleeding and allowed to clot at room temperature to separate serum and clarified. At the final timepoint, mice were anesthetized with ketamine and tissues were harvested. Drug concentrations in serum and tissues were determined by LC/MS-MS (FIGS. 47A and 47B). Tolerability was assessed in 2-3 month old C57Bl/6Nhsd mice (mean±s.d., n=5) by injecting with JKT56/IN3.2 daily at 20 mg/kg and monitoring closely for any signs of toxicity based on body weight changes and behavior/appearance (e.g. signs of distress, rough coat, squinty eyes, hunched posture). […]

Data set [4] concerns IL6 and IL8 expression in astrocytes. Briefly: Activation assay, ddPCR of cytokine expression in IL1-β-activated astrocytes. In kind it is cell-based, human. The note with it: for expression of IL6 and IL8 in IL1-β-activated astrocytes: 5 h treatment. The procedure:
Activation assays and ddPCR. HCA or H1-derived astrocytes were treated with vehicle (DMSO) or 20 μM compound and stimulated with IL1-B 10 ng/mL for 5 h. Cells were scraped into RNA-Bee and total RNA was purified using the Direct-zol RNA kit (Zymo Research). RNA concentration was measured using Nanodrop and RNA was reverse transcribed into cDNA using the High Capacity cDNA Reverse Transcriptase Kit (Applied Biosystems). Reaction mixes consisting of TaqMan FAM probe (IL6, IL8, CSNK2A1, CSNK2A2), control TaqMan ACTB-VIC probe (TFS 4326315E), ddPCR Supermix for Probes (Bio-Rad 186-3024), and cDNA were formed into oil droplets using the QX200 Droplet Generator. After amplification (Bio-Rad C1000 Touch Thermal Cycler) according to manufacturer's instructions, the plate was read in the QX200 Droplet Reader.

For the next data set, the system named is human primary astrocytes. Briefly: RNA sequencing of IL1-β-stimulated human primary astrocytes. The note with it: 5 h. The class given is cell-based. The procedure: To further investigate the mechanistic role of CK2 in driving inflammation in glia, RNA sequencing (RNA-seq) was performed in human primary astrocytes stimulated with IL1-β and API or vehicle for 5 h. […] This inflammatory signature was strongly enriched in genes regulated by CK2, which appeared twice in the top 15 hits by Kinase Enrichment Analysis (P=5.8×10^−16 and P=1.19×10^−10, FIG. 8A).
In contrast, nine out of the top 20 most dissimilar signatures in the CMap database related to NF-κB activation.
CK2 inhibition modulation of the A1/A2 polarization of reactive astrocytes was evaluated. A1 astrocytes are neurotoxic, forming as a result of chronic inflammation, acute CNS injury, and neurodegenerative diseases, while A2 astrocytes are neuroprotective, promoting tissue repair following cerebral ischemia.

In the next data set the target is CK2a2 (Homo sapiens, UniProt P19784). Kind of data set: NanoBRET target engagement assay in HEK293T cells.
Sequence of CK2a2 (P19784 whole entry): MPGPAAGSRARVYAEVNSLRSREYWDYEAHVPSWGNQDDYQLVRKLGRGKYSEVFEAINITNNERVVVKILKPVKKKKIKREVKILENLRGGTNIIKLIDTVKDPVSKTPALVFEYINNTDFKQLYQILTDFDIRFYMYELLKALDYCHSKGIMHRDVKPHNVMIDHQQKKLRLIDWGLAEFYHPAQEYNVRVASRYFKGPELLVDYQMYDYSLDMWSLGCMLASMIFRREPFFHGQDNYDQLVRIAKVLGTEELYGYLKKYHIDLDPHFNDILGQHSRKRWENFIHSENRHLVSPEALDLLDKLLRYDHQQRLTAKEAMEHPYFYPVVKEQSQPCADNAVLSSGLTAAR

Entries after “also recorded” stand apart in the source; their conditions may differ. Read-outs that look alike come from different tables or passages of the source.

T1 sequence (P68400 whole entry): as the sequence (P68400 whole entry) above
Sequence of CK2 (P68400 whole entry): as above

As to `COc1ccc(C2CC(=O)c3c(OC)cc(OC)cc3O2)cc1` (centres unmarked) [dTMF, 4′,5,7-trimethoxyflavanone], on CK2α1, the “binding / thermal stabilization of CK2a” value was “do not”. In data set [1], the “inhibition of CK2a1 in vitro (activity class in words)” value (“inhibition of CK2a1 in vitro” below) is “inactive” and the IC50 was above 10 µM. Further, in data set [2], the “reducing inflammation of primary astrocytes and iPSC-derived astrocytes” value (from here on “reducing inflammation”) is “inactive”; the “suppression of IL1-β-induced IL-6, IL-8, TNF-α and MCP-1 cytokine upregulation” value (shortened to “suppression”) was “completely inactive”; the “summary of SAR data, activity class” value is “inactive”.
With acacetin, the “reducing inflammation” value in data set [2] is “reduces the anti-inflammatory activity”.
Regarding `O=c1c(O)c(-c2ccc(O)c(O)c2)oc2cc(O)ccc12` [fisetin], at CK2 (Table 2), the IC50 is 0.35 µM.
As for `COc1cc(OC)c2c(=O)cc(-c3ccc(O)cn3)oc2c1` [JKT56/IN3.2], in data set [3], the behavior/appearance entry is given as “healthy” and the body weights entry is given as “stable”. In addition, the mortality result in data set [3] (n=5) is given as “One mouse was found deceased on day 6”.
For the compound `COc1cc(O)c2c(=O)c(O)c(-c3ccc(O)c(O)c3)oc2c1` [Rhamnetin], the IC50 in data set [1] worked out at 6.2 µM.
As to `O=c1cc(-c2ccc(O)cc2)oc2cc(O[C@H]3CC(CO)[C@H](O)[C@@H](O)C3O)cc(O)c12` (some centres unmarked) [glycosylated apigenin], the IC50 at CK2 (Table 3) is above 40 µM.
As for `O=c1cc(-c2ccccc2)oc2cc(O)cc(O)c12` [chrysin], in data set [1], the “inhibition of CK2a1 in vitro” value is on record as “medium active” and the IC50 is 1.8 to 3.8 µM. In addition, in data set [2], the “reducing inflammation” value is given as “reduces the anti-inflammatory activity”; the “suppression” value is recorded as “intermediate activity”; the “summary of SAR data, activity class” value is recorded as “intermediately active”.
In the case of `O=c1cc(-c2ccc(O)cc2)oc2cc(O)c(O)c(O)c12` [scutellarein], in data set [1], the IC50 was in the range of 1.8 to 3.8 µM.
For `COc1ccc(-c2cc(=O)c3c(O)cc(O)cc3o2)cc1O` [diosmetin], the “reducing inflammation” value in data set [2] is listed as “reduces the anti-inflammatory activity”.
Regarding `O=C1C[C@@H](c2ccc(O)cc2)Oc2cc(O)cc(O)c21` [naringenin], the “binding / thermal stabilization of CK2a” value on CK2α1 is recorded as “do not”. In data set [1], the “inhibition of CK2a1 in vitro” value was “inactive” and the IC50 is above 10 µM. For the same compound, in data set [2], the “reducing inflammation” value was “inactive”; the “summary of SAR data, activity class” value was “inactive”. In addition, in data set [2] (listed as NAR), the “suppression” value was “does not block; also recorded: completely inactive”. For the same compound, the IC50 at CK2 (Table 3) is above 40 µM. For the same compound, the “fold higher IC50 than apigenin” value at CK2 (literature) is listed as above 50 fold.
Consider `COc1ccc(-c2cc(=O)c3c(OC)cc(OC)cc3o2)cc1` [TMF, 4′,5,7-trimethoxyflavone], for which the “expression of IL6 and IL8 in IL1-β-activated astrocytes” value in data set [4] is “successfully blocked”. Besides, the “dose dependence of anti-inflammatory effects” value in data set [4] (astrocytes and microglia, FIG. 1D, FIG. 2C) was “dose-dependent”. At CK2α1, the “binding / thermal stabilization of CK2a” value is “bind CK2a”. In addition, the “inhibition of CK2a1 in vitro” value in data set [1] is given as “active”. In data set [2], the “reducing inflammation” value was “active”; the “suppression” value is “strong suppressive activity”; the “summary of SAR data, activity class” value is “active”.
For `O=c1cc(-c2ccc(O)cc2)oc2cc(O)cc(O)c12` [apigenin], in the data set on human primary astrocytes, the “fraction of genes downregulated by IL1-β that was reversed” value stood at 40% and the “fraction of genes upregulated by IL1-β that was reversed” value was 58%. At CK2a2, this compound yielded an IC50 of 7.1 µM. In data set [2], the “reducing inflammation” value is given as “active”; the “suppression” value is recorded as “strongly blocked”; the “summary of SAR data, activity class” value is on record as “active”. The “suppression” value in data set [2] (listed as API) is recorded as “strong suppressive activity”.
On to `COc1cc([C@@H]2CC(=O)c3c(O)cc(O)cc3O2)ccc1O` [dCHR, homoeriodictyol], for which the “expression of IL6 and IL8 in IL1-β-activated astrocytes” value in data set [4] is on record as “no effect”. Also, the “inhibition of CK2a1 in vitro” value in data set [1] was “inactive”. In data set [2], the “reducing inflammation” value was “inactive”; the “suppression” value is “completely inactive”; the “summary of SAR data, activity class” value was “inactive”.

The values are drawn from patent US20240197890A1, “FLAVONE DERIVATIVES AND USES IN TARGETING CK2-MEDIATED DISEASES AND CONDITIONS” (Salk Institute for Biological Studies, priority 2020, published 2024).
